Measurements taken from patent US4056674A, “Derivatives of 3-deazaguanine” (priority 1975, dated 1977).
≈ marks a conversion by molar mass, not a printed value. Read-outs that look alike come from different tables or passages of the source.

Experiments:
adenovirus, type 3 = assay: In vitro antiviral, inhibition of virus-induced cytopathogenic effect (CPE), AV/3; assay type: cell-based; settings: KB or RK-13 cells, VR >0.5 significant, <0.5 slight antiviral activity
[1] = test system: herpes simplex virus, type 1; assay: In vitro antiviral, inhibition of virus-induced CPE, HSV/1; assay type: cell-based; settings: KB or RK-13 cells, VR >0.5 significant, <0.5 slight antiviral activity
vaccinia virus = assay type: cell-based; settings: VV; KB or RK-13 cells; VR >0.5 significant, <0.5 slight antiviral activity
human cytomegalovirus = assay: In vitro antiviral, inhibition of virus-induced CPE, HCMV; assay type: cell-based; settings: KB or RK-13 cells, VR >0.5 significant, <0.5 slight antiviral activity
pseudorabies virus = assay type: cell-based; settings: PRV; KB or RK-13 cells; VR >0.5 significant, <0.5 slight antiviral activity
myxoma virus = assay: In vitro antiviral, inhibition of virus-induced CPE, MV; assay type: cell-based; settings: KB or RK-13 cells, VR >0.5 significant, <0.5 slight antiviral activity
Protocol: In this example, compounds 3, 4, 13, 16, 20, 22, 29 and 30 were tested to determine their in vitro antiviral efficacy, using the inhibition virus-induced cytopathogenic effect (CPE) method of Sidwell, et al. (Applied Microbiology 22:797-801, 1971). Briefly, the CPE procedure includes the suspension of the antiviral agent in a cell culture medium consisting of vitamins, amino acids, serum, buffer, penicillin, streptomycin and indicator dye in water. The virus suspended in the cell culture medium was added to an established monolayer of KB cells or RK-13 cells, and an equal volume of the antiviral agent was then added within 15 minutes. The infected treated cells were graded following microscopic examination. Controls for each experiment include cell controls cells and cell culture medium only), virus controls (cell and virus cell culture medium) and toxicity controls (cells and chemical and cell culture medium).
The virus rating (VR) system of Sidwell et al., described in Applied Microbiology, supra, was used to evaluate the degree of significance of CPE inhibition.

[2] = test system: Parainfluenza virus, type 3; assay: In vitro antiviral, inhibition of virus-induced CPE, PIV/3; assay type: cell-based
[3] = test system: parainfluenza virus, type 1; assay: In vitro antiviral, inhibition of virus-induced CPE, PIV/1; assay type: cell-based
rhinovirus, type 1A = assay: In vitro antiviral, inhibition of virus-induced CPE, RV/1A; assay type: cell-based; settings: KB or RK-13 cells, VR >0.5 significant, <0.5 slight antiviral activity
RV/2: rhinovirus, type 1 = assay: In vitro antiviral, inhibition of virus-induced CPE, RV/2; assay type: cell-based; settings: KB or RK-13 cells, VR >0.5 significant, <0.5 slight antiviral activity
rhinovirus, type 8 = assay: In vitro antiviral, inhibition of virus-induced CPE, RV/8; assay type: cell-based; settings: KB or RK-13 cells, VR >0.5 significant, <0.5 slight antiviral activity
rhinovirus, type 13 = assay: In vitro antiviral, inhibition of virus-induced CPE, RV/13; assay type: cell-based; settings: KB or RK-13 cells, VR >0.5 significant, <0.5 slight antiviral activity
rhinovirus, type 56 = assay: In vitro antiviral, inhibition of virus-induced CPE, RV/56; assay type: cell-based; settings: KB or RK-13 cells, VR >0.5 significant, <0.5 slight antiviral activity
influenza virus, type Ao = assay: In vitro antiviral, inhibition of virus-induced CPE, IV/Ao; assay type: cell-based; settings: KB or RK-13 cells, VR >0.5 significant, <0.5 slight antiviral activity
[4] = test system: vesicular stomatitis virus; assay type: cell-based; settings: VSV; KB or RK-13 cells; VR >0.5 significant, <0.5 slight antiviral activity
[5] = test system: viruses causing respiratory diseases such as influenza in man; settings: background statement; cited from earlier work
virus = settings: background statement; cited from earlier work
Escherichia Coli = assay: In vivo antibacterial activity, survival of mice after intraperitoneal challenge with Escherichia coli 138; parameters: species or system white mice (ICR, COX 17 to 20 g); settings: 7 days
Protocol: In this example compounds 7 and 23 were tested along with, as a comparison, the known antibiotic Gentamycin, to determine their in vivo antibacterial activity. Experimental infections were produced in groups of 20 white mice (ICR, COX 17 to 20 g).
*Ec 138: Tetracycline and Streptomycin
**The LD50 is the challenge that killed 50% of the infected mice; th
LD50 values for the pathogen were calculated by the method of Probit

[6] = test system: herpes simplex virus, type 2; assay: In vitro antiviral, inhibition of virus-induced CPE, HSV/2; assay type: cell-based; settings: KB or RK-13 cells, VR >0.5 significant, <0.5 slight antiviral activity
leukemia L1210 = assay: Activity against leukemia L1210 in BDF1 female mice; assay type: in vivo; settings: 40 mg/kg i.p., qd [1-9]
Protocol: In this example compound 30 was tested for antitumor activity in mice. […] A 10^-5 M concentration of compound 30 caused 50% inhibition of the incorporation of ^3 H-thymidine and ^3 H-uridine into the acidinsoluble fraction of L1210 cells in tissue culture. […] Ara C (cytosine arabinoside) was included as a standard.
All animals were inoculated (i.p) with 10^5 leukemic cells. Treatment
was started 24 hours after transplant. Figures in parenthesis denote 21

Escherichis = assay: In vitro antibacterial, broth dilution assay, Escherichia; assay type: cell-based; settings: Escherichis; clinical isolates; 24 hr at 35°; read-out: Average MIC
Protocol: (§1) In this example compounds 7 and 30 were tested to determine their in vitro antibacterial activity. Clinical isolates of pathogens were used for this example. In vitro sensitivity of these organisms were quantitatively determined by broth dilution assay. Serial dilutions were prepared in chemically defined medium in a range from 100 to 0.01 μg/ml. The minimal Inhibitory Concentration (MIC) was recorded as the highest dilution of compound which prevented visible growth of the pathogen following 24 hr incubation at 35°.

Salmonella = assay: In vitro antibacterial, broth dilution assay, Salmonella; assay type: cell-based; settings: clinical isolates, 24 hr at 35°
Protocol: as §1

Serratia = assay: In vitro antibacterial, broth dilution assay, Serratia; assay type: cell-based; settings: clinical isolates, 24 hr at 35°
Protocol: as §1

Klebsiella = assay: In vitro antibacterial, broth dilution assay, Klebsiella; assay type: cell-based; settings: clinical isolates, 24 hr at 35°
Protocol: as §1

Enterobacter = assay: In vitro antibacterial, broth dilution assay, Enterobacter; assay type: cell-based; settings: clinical isolates, 24 hr at 35°
Protocol: as §1

Citrobacter = assay: In vitro antibacterial, broth dilution assay, Citrobacter; assay type: cell-based; settings: clinical isolates, 24 hr at 35°
Protocol: as §1

Providence = assay: In vitro antibacterial, broth dilution assay, Providence; assay type: cell-based; settings: clinical isolates, 24 hr at 35°
Protocol: as §1

Pseudomonas = assay: In vitro antibacterial, broth dilution assay, Pseudomonas; assay type: cell-based; settings: clinical isolates, 24 hr at 35°
Protocol: as §1

Proteus = assay: In vitro antibacterial, broth dilution assay, Proteus; assay type: cell-based; settings: Proteus; clinical isolates; 24 hr at 35°; read-out: Average MIC
Protocol: as §1

Shigella = assay: In vitro antibacterial, broth dilution assay, Shigella; assay type: cell-based; settings: clinical isolates, 24 hr at 35°
Protocol: as §1

Nc1cc2c(ncn2[C@@H]2O[C@H](CO)[C@@H](O)[C@H]2O)c(=O)[nH]1 [Compound 4, 6-Amino-1-β-D-ribofuranosylimidazo[4,5-c]pyridin-4(5H)-one]
Virus rating (VR) (adenovirus, type 3): 0.8
Virus rating (VR) [1]: 0.9
Virus rating (VR) (vaccinia virus): 0.6
Virus rating (VR) (human cytomegalovirus): 0.5
Virus rating (VR) (pseudorabies virus): 0.3
Virus rating (VR) (myxoma virus): 1.0
Virus rating (VR) ([2]; PIV/3, KB or RK-13 cells, VR >0.5 significant, <0.5 slight antiviral activity): 0.6
Virus rating (VR) ([3]; PIV/1, KB or RK-13 cells, VR >0.5 significant, <0.5 slight antiviral activity): 0.6
Virus rating (VR) (rhinovirus, type 1A): 0.1
Virus rating (VR) (RV/2: rhinovirus, type 1): 1.2
Virus rating (VR) (rhinovirus, type 8): 1.2
Virus rating (VR) (rhinovirus, type 13): 1.0
Virus rating (VR) (rhinovirus, type 56): 0.7
Virus rating (VR) (influenza virus, type Ao): 0.1
Virus rating (VR) [4]: 1.1

NC(=O)c1ncn([C@@H]2O[C@H](CO)[C@@H](O)[C@H]2O)n1 [1-β-D-ribofuranosyl-1,2,4-triazole-3-carboxamide]
activity against respiratory disease viruses [5]: active against these respiratory disease viruses

NC(=S)c1nc[nH]n1 [1,2,4-triazole-3thiocarboxamide]
antiviral activity (virus): significant antiviral activity

Gentamycin [reference compound]
% survival (Escherichia Coli; challenge 1 LD50, 1 mg/kg × 2, SC): 100%
% survival (Escherichia Coli; challenge 10 LD50's, 1 mg/kg × 2, SC): 100%
% survival (Escherichia Coli; challenge 100 LD50's, 1 mg/kg × 2, SC): 90%
% survival (Escherichia Coli; challenge 1000 LD50's, 1 mg/kg × 2, SC): 80%
% survival (Escherichia Coli; challenge 10,000 LD50's, 1 mg/kg × 2, SC): 60%

N#CCc1c(C(N)=O)ncn1[C@@H]1O[C@H](CO)[C@@H](O)[C@H]1O [Compound 3, 5-Cyanomethyl-1-β-D-ribofuranosylimidazole-4-carboxamide]
Virus rating (VR) [1]: 0.6
Virus rating (VR) [6]: 1.3

NC(=O)c1nc[nH]n1 [1,2,4-triazole-3-carboxamide]
antiviral activity (virus): significant antiviral activity

N#CCc1c(C(N)=O)ncn1[C@@H]1O[C@H](COP(=O)(O)O)[C@@H](O)[C@H]1O [Compound 20, 5-Cyanomethyl-1-β-D-ribofuranosylimidazole-4-carboxamide 5'-phosphate]
Virus rating (VR) [1]: 0.8
Virus rating (VR) [6]: 0.5
Virus rating (VR) (vaccinia virus): 0.3

Nc1cc2ncn(C3CCCCO3)c2c(=O)[nH]1 (stereo not drawn) [Compound 13, 6-Amino-3-(tetrahydropyran-2-yl)imidazo[4,5-c]pyridin-4(5H)-one]
Virus rating (VR) [1]: 0.8

N#CCc1[nH]cnc1C(N)=O [Compound 29, 4(5)-Cyanomethylimidazole-5(4)-carboxamide]
Virus rating (VR) (adenovirus, type 3): 0.8
Virus rating (VR) [1]: 0.9
Virus rating (VR) [2]: 0.5
Virus rating (VR) (rhinovirus, type 13): 0.6

O=c1[nH]c(=O)n([C@H]2C[C@H](O)[C@@H](CO)O2)cc1I [IDU, 5-iodo-2' -deoxyuridine]
activity against respiratory disease viruses [5]: only active against a limited spectrum of viruses which does not include those causing respiratory diseases

Nc1ccn([C@@H]2O[C@H](CO)[C@@H](O)[C@@H]2O)c(=O)n1 [Ara C, 1-β-D-arabinofuranosylcytosine, reference compound]
21 day survivors (leukemia L1210): 0/6
Average Mean Survival (leukemia L1210): 17.33 days
T/C (leukemia L1210): 2.11
ΔWt. (leukemia L1210): -0.2 g
activity against respiratory disease viruses [5]: only active against a limited spectrum of viruses which does not include those causing respiratory diseases

Nc1cc2ncn([C@@H]3O[C@H](CO)[C@@H](O)[C@H]3O)c2c(=O)[nH]1 [Compound 7, 6-amino-3-β-D-ribofuranosylimidazo[4,5-c]pyridin-4(5H)one]
MIC (Escherichis): 0.5 µg/mL (≈ 1.77 µM)
MIC (Salmonella): 5 µg/mL (≈ 17.7 µM)
MIC (Serratia): 5 µg/mL (≈ 17.7 µM)
MIC (Klebsiella): 8 µg/mL (≈ 28.3 µM)
MIC (Enterobacter): 10 µg/mL (≈ 35.4 µM)
MIC (Citrobacter): 5 µg/mL (≈ 17.7 µM)
MIC (Providence): 15 µg/mL (≈ 53.1 µM)
MIC (Pseudomonas): 100 µg/mL (≈ 354 µM)
MIC (Proteus): 10 µg/mL (≈ 35.4 µM)
MIC (Shigella): 100 µg/mL (≈ 354 µM)
% survival (Escherichia Coli; challenge 1 LD50, 50 mg/kg × 2, oral): 100%
% survival (Escherichia Coli; challenge 10 LD50's, 50 mg/kg × 2, oral): 100%
% survival (Escherichia Coli; challenge 100 LD50's, 50 mg/kg × 2, oral): 100%
% survival (Escherichia Coli; challenge 1000 LD50's, 50 mg/kg × 2, oral): 90%
% survival (Escherichia Coli; challenge 10,000 LD50's, 50 mg/kg × 2, oral): 75%

Nc1cc2ncn([C@@H]3O[C@H](COP(=O)(O)O)[C@@H](O)[C@H]3O)c2c(=O)[nH]1 [Compound 23, 6-Amino-3-β-D-ribofuranosylimidazo[4,5-c]pyridin-4(5H)-one-5'-phosphate]
% survival (Escherichia Coli; challenge 1000 LD50's, 100 mg/kg × 1, oral): 100%

Nc1ncnc2c1ncn2[C@@H]1O[C@H](CO)[C@@H](O)[C@@H]1O [ara-A, 9-β-D-arabino furanosyladenine]
activity against respiratory disease viruses [5]: only active against a limited spectrum of viruses which does not include those causing respiratory diseases

Nc1cc2c(ncn2[C@@H]2O[C@H](COP(=O)(O)O)[C@@H](O)[C@H]2O)c(=O)[nH]1 [Compound 22, 6-Amino-1-β-D-ribofuranosylimidazo[4,5-c]pyridin-4(5H)-one 5'-phosphate]
Virus rating (VR) [1]: 0.9
Virus rating (VR) [6]: 1.0
Virus rating (VR) (vaccinia virus): 0.7
Virus rating (VR) [2]: 0.8
Virus rating (VR) [3]: 0.3
Virus rating (VR) (rhinovirus, type 13): 0.9

C[C@H]1O[C@@H](n2cnc3c(=O)[nH]c(N)cc32)[C@H](O)[C@@H]1O [Compound 16, 6-Amino-1-(5-deoxy-β-D-ribofuranosyl)imidazo[4,5-c]pyridine-4(5H)-one]
Virus rating (VR) [1]: 0.9
